Reference: PMC10603063, “A quantitative method for determination of colistin E2 methanesulphonate in human plasma by ^15N-labeled colistin E2” (Scientific Reports, 2023)
Like-named read-outs stand apart in the source and are kept apart here. Peptide text beside a SMILES is read from it.

What was measured:
[1] = for long-term storage stability: colistin E2-spiked samples, at least 93 days
Method: (§1) Referring to Zhou et al.[10], for each plasma sample, 100 µL of 5% ammonia was added to a mixture containing 100 µL of CMS E2 calibration plasma standards or QCs and 20 µL of 15 µg/ml IS solution. After vortexing, the mixtures were loaded onto WCX SPE plates. Before loading the sample, the WCX SPE plates were preconditioned with 1 ml methanol followed by 1 mL water to activate the extraction. The plate was sequentially washed with 1 mL of water, 1 mL of methanol, 1 mL of 70% ACN with 2% ammonia, and 1 ml 0.5% FA. Subsequently, 300 µL of 70% ACN with 6% FA was used to elute the analytes twice. Total eluents (600 µL) were collected with an SPE 96-Deep Square Well collection plate, mixed in a 96-well plate mixer, and analyzed by UHPLC-MS/MS.
(§2) The stability of colistin E2 was evaluated at two levels (low and high QCs).
(§3) The hydrolysis of CMS E2 is temperature dependent; the lower the temperature, the slower the hydrolysis rate. The samples were processed in ice water. Therefore, we studied their stability in ice-water. In the presence of CMS E2 (the spiked concentration was 50 times the concentration of colistin, which can cover the clinical samples), the stability of colistin E2 was also evaluated under the following conditions: on the bench top in ice water for 21 h, four freeze–thaw cycles, storage at − 20 ℃ and − 80 ℃ (at least 98 days), and storage of extracts at 4 ℃ in an auto-sampler for 22.5 h.
The method was used for the stability study, and all the following medicinal solutions and plasma samples were prepared and used in an ice water bath and stored at -20 °C after use.
2.6.4 Preparation of plasma quality control sample QC_mix for CMS E2/Colistin E2

[2] = tested on: Bordetella bronchitica ATCC4617; experiment: Cylinder-plate potency method of the United States pharmacopoeia; type: cell-based
Excerpt: In addition to at least 30 minor polymyxins with very similar physiochemical properties, colistin consists of colistin E1 and colistin E2 (Fig. 1)[6]. According to European Pharmacopoeia records, the components with the same molecular weight as colistin E1 are colistin E1-7MOA and E1-I, and colistin E2 is colistin E3, E2-I, and E1-Nva. In short, except for the principal components colistin E1 and E2, other components with similar physicochemical properties account for nearly 20% of colistin. These components could not be separated from colistin E1/E2 using mobile phases containing formic acid but were identified as a single peak of polymyxin E1/E2 by HPLC. This neglected problem actually brings some interferes with single component or colistin quantification. In the process of developing CMS, we successfully purified single components of colistin E1 and E2 with a purity of more than 99% by preparative HPLC using a specific salt mobile phase.

[3] = Method: as §1, §2, §3
[4] = stock solution in methanol: water (1: 1)
Method: as §2
The standard curve stock solution and the quality control stock solution for colistin E2 need to be prepared from different weighing. All solutions were kept at -20°C.
The colistin E2 reference was accurately weighed and dissolved with an appropriate amount of methanol: water (1: 1) to prepare a stock solution SS-A with a concentration of 3 mg/mL.

[5] = remark: listed apart in the source
Method: as §2
as §3, with “[…],” for “on the bench top in ice water for 21 h,”

| Compound | benchtop stability ([1]; colistin E2-spiked plasma, low and high QCs, without CMS E2, bench top in ice water for 24 h) | freeze–thaw stability ([1]; colistin E2-spiked plasma, low and high QCs, without CMS E2, four freeze–thaw cycles) | long-term storage stability ([1]; low and high QCs, −20 ℃) | long-term storage stability ([1]; low and high QCs, −80 ℃) | %Change, benchtop stability ([1]; human plasma (EDTA-K2) spiked with CMS E2 (50 times colistin concentration; QC_mix 24/0.48 µg/mL), 21 h in ice water, UHPLC-MS/MS) [%] | %Change, long-term stability ([1]; human plasma spiked with CMS E2, 41 d in freezer (−20℃), UHPLC-MS/MS) [%] | antibacterial activity (comparison of purified single components) ([2]; single components purified to more than 99% by preparative HPLC) | duration of stability in the auto-sampler ([3]; extracts after WCX SPE removal of CMS E2, auto-sampler (4℃)) | stability of extracts ([3]; extracts at 4 ℃ in an auto-sampler for 65.5 h, without CMS E2) | %Change, processed sample stability ([3]; sample extracts of matrix spiked with CMS E2, 22.5 h in an auto-sampler (4℃), UHPLC-MS/MS) [%] | stability of stock solutions ([4]; stored at ambient for 21 h) | stability of stock solutions, long-term ([4]; −20 ℃ for at least 97 days) | percentage of change in blood spiked with CMS E2 ([5]; blood spiked with CMS E2, ice water for 60 min) | stability in fresh whole blood ([5]; fresh whole blood (EDTA-K2), bench top in ice water for 66 min, without CMS E2) | potency ([2]; cylinder-plate method, United States pharmacopoeia, test bacteria Bordetella bronchitica ATCC4617) [µg/mg] |
| --- | --- | --- | --- | --- | --- | --- | --- | --- | --- | --- | --- | --- | --- | --- | --- |
| CC(C)CCCCC(=O)N[C@@H](CCN)C(=O)N[C@H](C(=O)N[C@@H](CCN)C(=O)N[C@H]1CCNC(=O)[C@H]([C@@H](C)O)NC(=O)[C@H](CCN)NC(=O)[C@H](CCN)NC(=O)[C@H](CC(C)C)NC(=O)[C@@H](CC(C)C)NC(=O)[C@H](CCN)NC1=O)[C@@H](C)O [colistin E2] (HELM PEPTIDE1{[CC(C)CCCCC(=O)[*:2]].[Dab].T.[Dab].[Dab].[Dab].[dL].L.[Dab].[Dab].T}$PEPTIDE1,PEPTIDE1,5:R3-11:R2$$$V2.0) | no degradation | no degradation | no degradation | no degradation | 2.0 | 1.3 | higher than that of E1 | at least 22.5 h | no degradation | 4.4 | no degradation | no degradation | less than 15% | no degradation |  |
| colistin E2 methanesulphonate [CMS E2] |  |  |  |  |  |  |  |  |  |  |  |  |  |  | 611 |
